We go through 25 molecules from patent US9822113B2, “Tricyclic compounds and process for preparation thereof” (Council of Scientific & Industrial Research, priority 2013, dated 2017).

Test [1] deals with Salmonella enterica strain AMC (ATCC #6539). In words: Antibiotic assay: MIC by Promega Bac Titer-Glo microbial cell viability assay. Type of test: cell-based. The note with it: 24 hours treatment, inoculum ~5×10^4 CFU/mL, Mueller Hinton broth. Here is the method: In a preferred embodiment, the novel a novel tricyclic compounds of formula (I) and formula (II) are evaluated for anti-microbial activity. The minimum inhibitory concentrations (MICs) is determined using the Promega Bac Titer-Glo microbial cell viability assay. The assays is carried out using Salmonella enterica strain AMC (ATCC #6539), Inocula of S. enterica prepared from 12-h broth cultures grown in Mueller Hinton broth and the suspensions were then adjusted to a turbidity of 0.5 McFarland. […] Bacterial cells were treated with hunanamycin analogs for 24 hours at ranges from 0.4 to 40 μg/mL and ciprofloxacin as a control ranging from 0.03 to 10 μg/mL. The OD600 measured using an Envision multi-modal plate reader (Perkin-Elmer, Inc.).
The minimum inhibitory concentrations (MICs) were determined using the Promega Bac Titer-Glo microbial cell viability assay, which measures cell viability by quantitation of ATP present, an indicator of metabolic activity of cells. The assays were carried out using Salmonella enterica strain AMC (ATCC #6539), Inocula of S. enterica were prepared from 12-h broth cultures grown in Mueller Hinton broth and the suspensions were then adjusted to a turbidity of 0.5 McFarland. […] Bacterial cells were treated with hunanamycin analogs for 24 hours at ranges from 0.4 to 40 μg/mL and ciprofloxacin as a control ranging from 0.03 to 10 μg/mL. The OD600 was measured using an Envision multi-modal plate reader (Perkin-Elmer, Inc.). The antibiotic assays were performed in Prof. John B. MacMillan's lab, Department of Biochemistry, University of Texas Southwestern Medical Center at Dallas, USA.

Test [2] deals with Salmonella enterica. Particulars: against the bacterial pathogen Salmonella enterica; literature value; cited from earlier work.
Where [3] appears, read: Salmonella enterica, ATCC6539, 24 h, read-out: MIC.
The mark [4] stands for this setting: Salmonella enterica, ATCC6539, 24 h.

≈ marks a conversion by molar mass, not a printed value. Where two headings read alike, the source gives them in different places. A value given as a limit tells only on which side of the number the result lay.

Turning to `Cc1cc2c3c(c1C)C(C)(C)CCn3c(=O)c(=O)n2CC(O)CO` (stereo not drawn) [Compound 4, 1-(2,3-dihydroxypropyl)-7,7,8,9-tetramethyl-6,7-dihydro-1H,5H-pyrido[1,2,3-de]quinoxaline-2,3-dione], the MIC in test [1] (setting [3]) is above 16 µg/mL.
In test [1] (setting [4]), `Cc1cc2c3c(c1C)C(C)(C)CCn3c(=O)c(=O)n2C[C@@H](O)[C@H](O)[C@H](O)CO` [7,7,8,9-tetramethyl-1-((2R,3S,4R)-2,3,4,5-tetrahydroxy-pentyl)-6,7-dihydro-1H,5H-pyrido[1,2,3-de]quinoxaline-2,3-dione] had a minimal inhibitory concentration (MIC) of 8 µg/mL (≈ 20.4 µM).
`COC1O[C@H](Cn2c(=O)n3c4c(cccc42)C(C)(C)CC3)[C@@H](O)[C@H]1O` (stereo partly drawn) [Compound 25, 1-(((2R,3S,4R)-3,4-dihydroxy-5-methoxytetrahydrofuran-2-yl)methyl)-6,6-dimethyl-5,6-dihydro-4H-imidazo[4,5,1-ij]quinolin-2(1H)-one]: in test [1] (setting [3]), the MIC is 2 µg/mL (≈ 5.74 µM).
Still for that read-out and setting: next, `CC1(C)CCn2c(=O)c(=O)n(C[C@H](O)[C@H](O)[C@H](O)CO)c3cccc1c32` [Compound 7, 7,7-dimethyl-1-((2S,3S,4R)-2,3,4,5-tetrahydroxypentyl)-6,7-dihydro-1H,5H-pyrido[1,2,3-de]quinoxaline-2,3-dione]: above 16 µg/mL.
With `CC1(C)CCn2c(=O)n(Cc3cn(CCO)nn3)c3cccc1c32` [1-((1-(2-hydroxyethyl)-1H-1,2,3-triazol-4-yl)methyl)-6,6-dimethyl-5,6-dihydro-4H-imidazo[4,5,1-ij]quinolin-2(1H)-one], the MIC in test [1] (setting [4]) was 8 µg/mL (≈ 24.4 µM).
In turn, `Cc1cc2nc(OC[C@H](O)[C@H](O)[C@H](O)CO)c(=O)n3c2c(c1C)C(C)(C)CC3` [Compound 1, 7,7,8,9-tetramethyl-2-(((2S,3R,4R)-2,3,4,5-tetrahydroxy-pentyl)oxy)-6,7-dihydro-3H,5H-pyrido[1,2,3-de]quinoxalin-3-one] showed a minimal inhibitory concentration (MIC) in test [1] (setting [4]) of 8 µg/mL (≈ 20.4 µM).
For the molecule `CC1(C)CCn2c(=O)n(CC(O)CO)c3cccc1c32` (stereo not drawn) [Compound 23, 1-(2,3-dihydroxypropyl)-6,6-dimethyl-5,6-dihydro-4H-imidazo[4,5,1-ij]quinolin-2(1H)-one], the MIC in test [1] (setting [3]) was above 16 µg/mL.
As to `CC1(C)CCn2c(=O)c(=O)n(C[C@@H](O)[C@H](O)[C@H](O)CO)c3cccc1c32` [Compound 8, 7,7-dimethyl-1-((2R,3S,4R)-2,3,4,5-tetrahydroxypentyl)-6,7-dihydro-1H,5H-pyrido[1,2,3-de]quinoxaline-2,3-dione], the “MIC” value in test [1] and in test [1] (setting [3]) was above 16 µg/mL in each case.
Molecule `CC1(C)CCn2c(=O)c(=O)n(CC(O)CO)c3cccc1c32` (stereo not drawn) [Compound 9, 1-(2,3-dihydroxypropyl)-7,7-dimethyl-6,7-dihydro-1H,5H-pyrido[1,2,3-de]quinoxaline-2,3-dione] came in with an MIC in test [1] (setting [4]) of 8 µg/mL (≈ 26.3 µM).
Take `CC1(C)CCn2c(=O)n(C[C@H](O)[C@H](O)[C@H](O)CO)c3cccc1c32` [Compound 21, 6,6-dimethyl-1-((2S,3S,4R)-2,3,4,5-tetrahydroxypentyl)-5,6-dihydro-4H-imidazo[4,5,1-ij]quinolin-2(1H)-one]: the MIC in test [1] (setting [3]) turned out to be 4 µg/mL (≈ 11.9 µM).
Regarding `CC1(C)CCn2c(=O)c(OC[C@H](O)[C@H](O)[C@H](O)CO)nc3cccc1c32` [Compound 6, 7,7-dimethyl-2-(((2S,3R,4R)-2,3,4,5-tetrahydroxypentyl)oxy)-6,7-dihydro-3H,5H-pyrido[1,2,3-de]quinoxalin-3-one], in test [1] (setting [3]), the MIC was above 16 µg/mL.
With `COC1O[C@H](Cn2c(=O)c(=O)n3c4c(cccc42)C(C)(C)CC3)[C@@H](O)[C@H]1O` (stereo partly drawn) [Compound 11, 1-(((2R,3S,4R)-3,4-dihydroxy-5-methoxytetrahydrofuran-2-yl)methyl)-7,7-dimethyl-6,7-dihydro-1H,5H-pyrido[1,2,3-de]quinoxaline-2,3-dione], the MIC in test [1] (setting [3]) is above 16 µg/mL.
On to `CC1(C)CCn2c(=O)n(Cc3cn(CCO)nn3)c3cccc1c32` [Compound 24, 1-((1-(2-hydroxyethyl)-1H-1,2,3-triazol-4-yl)methyl)-6,6-dimethyl-5,6-dihydro-4H-imidazo[4,5,1-ij]quinolin-2(1H)-one], for which the “MIC” value in test [1] is above 16 µg/mL.
Take `CCOC(=O)Cn1cc(Cn2c(=O)n3c4c(cccc42)C(C)(C)CC3)nn1` [Compound 24b, Ethyl 2-(4-((6,6-dimethyl-2-oxo-5,6-dihydro-4H-imidazo[4,5,1-ij]quinolin-1(2H)-yl)methyl)-1H-1,2,3-triazol-1-yl)acetate]: the MIC in test [1] (setting [3]) was 8 µg/mL (≈ 21.7 µM).
The same measure, in the same setting: next, `CC1(C)CCn2c(=O)c(=O)n(C[C@@H](O)[C@H](O)CO)c3cccc1c32` [Compound 12, 7,7-dimethyl-1-((2R,3R)-2,3,4-trihydroxybutyl)-6,7-dihydro-1H,5H-pyrido[1,2,3-de]quinoxaline-2,3-dione]: above 16 µg/mL; `CCOC(=O)Cn1cc(Cn2c(=O)c(=O)n3c4c(cccc42)C(C)(C)CC3)nn1` [Compound 10, ethyl 2-(4-((7,7-dimethyl-2,3-dioxo-2,3,6,7-tetrahydro-1H,5H-pyrido[1,2,3-de]quinoxalin-1-yl)methyl)-1H-1,2,3-triazol-1-yl)acetate]: above 16 µg/mL.
Regarding `CC1(C)CCn2c(=O)c(OC[C@H](O)[C@@H](O)CO)nc3cccc1c32` [Compound 13, 7,7-dimethyl-2-((2S,3S)-2,3,4-trihydroxybutoxy)-6,7-dihydro-3H,5H-pyrido[1,2,3-de]quinoxalin-3-one], the MIC in test [1] (setting [3]) came to 16 µg/mL (≈ 47.9 µM).
Turning to `CC1(C)CCn2c(=O)n(C[C@@H](O)[C@H](O)CO)c3cccc1c32` [Compound 26, 6,6-dimethyl-1-((2R,3R)-2,3,4-trihydroxybutyl)-5,6-dihydro-4H-imidazo[4,5,1-ij]quinolin-2(1H)-one], the MIC in test [1] (setting [3]) was above 16 µg/mL.
Regarding `CC1(C)CCn2c(=O)c(=O)n(CC(O)C(C)(C)O)c3cccc1c32` (stereo not drawn) [Compound 15, 1-(2,3-dihydroxy-3-methylbutyl)-7,7-dimethyl-6,7-dihydro-1H,5H-pyrido[1,2,3-de]quinoxaline-2,3-dione], the MIC in test [1] (setting [3]) is above 16 µg/mL.
Take `CC1(C)CCn2c(=O)c(OC[C@H](O)CO)nc3cccc1c32` [Compound 16, (R)-2-(2,3-dihydroxypropoxy)-7,7-dimethyl-6,7-dihydro-3H,5H-pyrido[1,2,3-de]quinoxalin-3-one]: the MIC in test [1] (setting [3]) is above 16 µg/mL.
As to `Cc1cc2c3c(c1C)C(C)(C)CCn3c(=O)c(=O)n2C[C@H](O)[C@H](O)[C@H](O)CO` (stereo in doubt) [Compound 2, 7,7,8,9-tetramethyl-1-((2S,3S,4R)-2,3,4,5-tetrahydroxypentyl)-6,7-dihydro-1H,5H-pyrido[1,2,3-de]quinoxaline-2,3-dione], the “minimum inhibitory concentration (MIC)” value in test [2] was 12.4 µM (≈ 4.87 µg/mL). In test [1] (setting [4]), the MIC is 8 µg/mL (≈ 20.4 µM).
As to `Cc1cc2c3c(c1C)C(C)(C)CCn3c(=O)c(=O)n2CC(O)C(O)C(O)CO` (stereo not drawn) [Compound 5, 7,7,8,9-tetramethyl-1-(2,3,4,5-tetrahydroxypentyl)-6,7-dihydro-1H,5H-pyrido[1,2,3-de]quinoxaline-2,3-dione], the MIC in test [1] (setting [3]) came out at 4 µg/mL (≈ 10.2 µM).
`CC(O)C(O)Cn1c(=O)c(=O)n2c3c(cccc31)C(C)(C)CC2` (stereo not drawn) [Compound 14, 1-(2,3-dihydroxybutyl)-7,7-dimethyl-6,7-dihydro-1H,5H-pyrido[1,2,3-de]quinoxaline-2,3-dione]: the MIC in test [1] (setting [3]) was above 16 µg/mL.
Consider `Cc1cc2c3c(c1C)C(C)(C)CCn3c(=O)c(=O)n2C[C@@H](O)[C@H](O)[C@H](O)CO` [Compound 3, 7,7,8,9-tetramethyl-1-((2R,3S,4R)-2,3,4,5-tetrahydroxy-pentyl)-6,7-dihydro-1H,5H-pyrido[1,2,3-de]quinoxaline-2,3-dione], for which, in test [1], the “MIC” value was found to be 8 µg/mL (≈ 20.4 µM).
As to `Cc1cc2c3c(c1C)C(C)(C)CCn3c(=O)c(=O)n2C[C@H](O)[C@H](O)[C@H](O)CO` [Compound 2, 7,7,8,9-tetramethyl-1-((2S,3S,4R)-2,3,4,5-tetrahydroxypentyl)-6,7-dihydro-1H,5H-pyrido[1,2,3-de]quinoxaline-2,3-dione], the MIC in test [1] (setting [3]) stood at 8 µg/mL (≈ 20.4 µM).

As usually defined, the MIC is the least concentration at which growth counts as inhibited.
